Measurements as given in US7884120B2, “2,4,5-trisubstituted imidazoles and their use as anti-microbial agents” (Lorus Therapeutics Inc., priority 2002, dated 2011).
Values after ≈ are worked out from the molar mass of the structure shown. Where two headings read alike, the source gives them in different places.

Legend:
[1] = tested on: Methicillin-Resistant Staphylococcus aureus (MRSA), CMRSA-1B; assay: MIC by sequential macrodilution (tube) broth method against MRSA; format: cell-based; set-up: key: (+): Positive visual bacterial growth; (−): Negative visual bacterial growth; details: 37° C. overnight
Description: (Nat. Committee for Clinical Laboratory Standards. Document M7-A5 2000, 20; 1-25). Bacterial suspensions containing 5×10^5 colony-forming units (CFU) were incubated with serial two-fold dilutions of each drug at 37° C. overnight, and growth was monitored visually. The range of MIC values among the triaryl-imidazole derivatives was 12.5-50 μg/ml.

[2] = tested on: Enterococcus faecium (ATCC-51559); assay: MIC by microdilution against Enterococcus faecium; format: cell-based; details: unit not given in Table 4 (Table 3, same method: μg/ml)
Description: (§1) A standard microdilution method (NCCLS, 2000; Document M7-A5) was used to determine the minimum inhibitory concentrations (MICs) against S. aureus, methicillin-resistant strains (MRSA); 1A-218, 1A-318, 1B-374, 1B-315, 1B-185, 1B387 (Simor et al. 1999 Can Commun Dis Rep; 25:105-108) and methicillin-sensitive strains (MSSA); ATCC-6538 and ATCC-29213. The MICs of some compounds were also determined against other Gram-positive bacteria: Enterococcus faecium (ATCC 51559), Enterococcus faecalis (ATCC-51299, ATCC-29212) and Staphylococcus epidermidis (ATCC-35983).
(§2) Mueller-Hinton broth (MHB) is recommended as the medium of choice for susceptibility testing of commonly isolated, rapidly growing aerobic organisms such as the Gram-positive bacteria included in this study. A “cation-adjusted Mueller-Hinton broth” (Ca-MHB) was prepared by first preparing standard MHB from a dehydrated base as recommended by the manufacturer.
(§3) Single colonies from fresh agar plates of the different bacterial cultures were sub-cultured overnight in 3 ml of Tryptic soy broth (TSB) at 37° C. with shaking at 250 RPM. After 18-20 hours of incubation, the absorbance at λ=600 nm (OD600) were determined for each culture and adjusted to a final OD600=0.1 (4.2×10^7 cfu/ml). Bacterial suspensions were then diluted 1:200 in sterile Ca-MHB for the in vitro susceptibility test, with each well of the microtitre plate containing approximately 2×10^5 cfu/ml.
(§4) Stock solutions of the different test compounds were prepared at concentrations of 1,280 μg/ml, 640 μg/ml, or 320 μg/ml in 50% DMSO (dimethyl sulfoxide). Serial two-fold dilutions were then prepared in 50% DMSO (the working concentrations were 1:10 of the stock concentrations in 100 μl culture suspensions). The filled microtitre plates were sealed in plastic bags and incubated at 35° C. for 24 hr in an ambient air incubator with shaking at 250 RPM. MIC values were determined as the lowest concentration where complete inhibition of the visible bacterial growth was observed by the unaided eye and confirmed by the measurement of the optical density (OD600).

[3] = tested on: S. aureus, MRSA 1A-218, 1A-318, 1B-374, 1B-315, 1B-185, 1B387 and MSSA ATCC-6538, ATCC-29213; assay: MIC by standard microdilution method against S. aureus (MRSA and MSSA strains); format: cell-based; details: Staphylococcus aureus
Description: as §1, §2, §3, §4

[4] = tested on: multi-drug resistant Staphylococcus aureus (CMRSA-1B); assay: Bactericidal effect against MRSA (CFU plating on TSA); format: cell-based; details: overnight with compound, plated on TSA, CFU count (FIG. 1)
Description: Serial dilutions of liquid cultures were incubated with the compounds at 37° C. overnight and then plated on Tryptic Soy Agar (TSA) plates. After incubation for 17 hours at 37° C., the number of live bacteria was calculated from the number of colonies grown per milliliter of culture and expressed as colony-forming units (CFU).

[5] = tested on: Enterococcus faecalis (ATCC-51299); assay: MIC by microdilution against Enterococcus faecalis ATCC-51299; format: cell-based; details: unit not given in Table 4 (Table 3, same method: μg/ml)
Description: as §1, §2, §3, §4

[6] = tested on: MRSA-1B387; assay: In vivo inhibition of MRSA, acute infection in immunosuppressed CB17-SCID mice; set-up: species or system Staphylococcus aureus; details: 5×10^6 MRSA-1B387 in 5% mucin, 50 mg/kg I.P. immediately and 3 hours after inoculation
Description: Triaryl-imidazole compounds were tested in vivo for antibacterial activity against MRSA in a model of acute infection using immunosuppressed mice. Suspensions of 400 μL containing 5×10^6 MRSA-1B387 bacteria in 5% mucin were injected into groups of 5-10 female, 8-14 weeks CB17-SCID mice. Under these conditions bacterial infection produced 80-100% lethality in less than 48 hours. Each group of inoculated mice was treated with 50 mg/kg of the respective compound intraperitoneally (I.P.) immediately and 3 hours after bacterial inoculation.

[7] = tested on: Staphylococcus epidermidis (ATCC-35983); assay: MIC by microdilution against Staphylococcus epidermidis; format: cell-based; details: unit not given in Table 4 (Table 3, same method: μg/ml)
Description: as §1, §2, §3, §4

[8] = format: in vivo; details: mice; injected 200 mg/kg per day
Description: In vivo acute toxicity tests were conducted using compounds 1, 2, 3 and 4. Mice were injected with each of the above compounds at a concentration of 200 mg/kg per day.

[9] = tested on: Enterococcus faecalis (ATCC-29212); assay: MIC by microdilution against Enterococcus faecalis ATCC-29212; format: cell-based; details: unit not given in Table 4 (Table 3, same method: μg/ml)
Description: as §1, §2, §3, §4

[10] = tested on: MRSA 1B-387; assay: In vivo anti-bacterial activity, ICR mice inoculated I.P. with MRSA, oral treatment; details: Staphylococcus aureus
[11] = tested on: MRSA 1B-387; assay: as above; details: Staphylococcus aureus; remark: listed apart in the source
Description: For in vivo studies, groups of 5-10 female ICR mice (6-7 weeks) were inoculated intraperitonially with 3-8×10^7 CFU MRSA 1B-387 per mouse in 400 μl of 5% mucin. The test compounds at concentrations of 50 or 100 mg/kg were administered orally immediately after the bacterial inoculation and again 3 hours later. The selected dosages were administered twice daily throughout the experiment. The efficacy of the treatment was evaluated by comparison of mortality between the experimental and control groups (Table 5).

[12] = against all 8 strains of S. aureus tested except where indicated, microdilution, Ca-MHB, 35° C., 24 hr, read-out: MIC

## Cc1[nH]c2ccccc2c1-c1nc(-c2ccccc2)c(-c2ccccc2)[nH]1 [Compound 2]
[1]; Conc. 3.12 μg/ml
  visual bacterial growth: +
[1]; Conc. 6.25 μg/ml
  visual bacterial growth: +
[1]; Conc. 12.50 μg/ml
  visual bacterial growth: −
[1]; Conc. 25.00 μg/ml
  visual bacterial growth: −
[1]; Conc. 50.00 μg/ml
  visual bacterial growth: −
[1]; Conc. 100.00 μg/ml
  visual bacterial growth: −
[2]
  MIC: 16
[3]; [12]
  MIC: 8 to 16 µg/mL (≈ 22.9 to 45.8 µM)
[4]
  bactericidal or bacteriostatic effect at the corresponding MIC: bactericidal effect
[5]
  MIC: 16
[6]
  Survival (%): 80%
[7]
  MIC: 16
[8]
  acute toxicity (symptoms of sickness, total weight, organ weight and appearance): no toxic effects
[9]
  MIC: 16

## Cc1[nH]c2ccccc2c1-c1nc(-c2ccc(Cl)cc2)c(-c2ccc(Cl)cc2)[nH]1 [Compound 19]
other
  melting point: 165 to 167 °C
[2]
  MIC: 8
[3]; [12]
  MIC: 4 µg/mL (≈ 9.56 µM)
[5]
  MIC: 8
[7]
  MIC: 4
[9]
  MIC: 8

## Brc1ccc2[nH]cc(-c3nc(-c4ccc(-c5ccccc5)cc4)c(-c4ccc(-c5ccccc5)cc4)[nH]3)c2c1 [Compound 41]
other
  melting point: 155 to 158 °C
[3]; [12]
  MIC: > 128 µg/mL

## Brc1ccc2[nH]cc(-c3nc4c5ccccc5c5ccccc5c4[nH]3)c2c1 [Compound 45]
[3]; 24 h
  MIC: 0.5 µg/mL (≈ 1.21 µM)
[10]
  responders at 200 mg/kg: 40%
[10]; read-out: Survival %
  responders at 200 mg/kg: 40%
[11]
  responders at 100 mg/kg: 10%
[11]; read-out: Survival %
  responders at 100 mg/kg: 20%
